Results published in ChEMBL document CHEMBL3994618, “The long story of camptothecin: From traditional medicine to drugs” (Bioorg Med Chem Lett, 2017).

Test: Drug excretion in human urine upto 24 hrs
Assay type: ADME
Details: read-out: Drug excretion

dose excreted at 24 h: 40%
Compound: CC[C@@]1(O)C(=O)OCc2c1cc1n(c2=O)Cc2cc3c(CN(C)C)c(O)ccc3nc2-1 [TOPOTECAN]
